Test results published in patent publication US20220040263A1, “COMPANION DIAGNOSTIC FOR COMBINATION LENALIDOMIDE AND ERYTHROPOIETIN TREATMENT” (H. Lee Moffitt Cancer Center and Research Institute, Inc., priority 2016, published 2022).
Entries after “also recorded” stand apart in the source; their conditions may differ.

Tests used:
[1] = tested on: Jak2 and STAT5 phosphorylation in UT7 cells; assay: Jak2 and STAT5 phosphorylation in UT7 cells with JAK or Src kinase inhibitors (Western); assay type: cell-based
Protocol: 10×10^7 UT7 cells were serum starved then treated with SKI 606 or AG490 for 30 minutes, CC5013 for 2 hours, and stimulated with EPO (1 U/ml) for 10 minutes at 37° C. Cells were lysed and […] run on a 4-15% Gradient gel (Bio-rad). Antibodies included p-STAT5 (Upstate, 1:1000 in 5% TBS/milk), total STAT5 (Cell Signaling, 1:10000 in 5% TBS/milk), and p-Jak2 (Santa Cruz, 1:500 in 5% TBS/milk). Blots were developed with an ECL detection kit (Amersham).
To further evaluate the mechanism by which lenalidomide enhances the EPO-R signal, STAT5 activation was assessed in response to EPO+lenalidomide treatment using selective pharmacologic inhibitors of JAK (AG490) or Src ([…]) kinases [FIG. 4].

rhu-CD45 = target: T1, rhu-CD45 (Homo sapiens, UniProt P08575); assay: BIOMOL Green CD45 Tyrosine Phosphatase Assay; assay type: biochemical; conditions: 1 μM, recombinant CD45, substrate pp60c-Src
T1 construct: purchased Calbiochem
T1 sequence (P08575 26-1306): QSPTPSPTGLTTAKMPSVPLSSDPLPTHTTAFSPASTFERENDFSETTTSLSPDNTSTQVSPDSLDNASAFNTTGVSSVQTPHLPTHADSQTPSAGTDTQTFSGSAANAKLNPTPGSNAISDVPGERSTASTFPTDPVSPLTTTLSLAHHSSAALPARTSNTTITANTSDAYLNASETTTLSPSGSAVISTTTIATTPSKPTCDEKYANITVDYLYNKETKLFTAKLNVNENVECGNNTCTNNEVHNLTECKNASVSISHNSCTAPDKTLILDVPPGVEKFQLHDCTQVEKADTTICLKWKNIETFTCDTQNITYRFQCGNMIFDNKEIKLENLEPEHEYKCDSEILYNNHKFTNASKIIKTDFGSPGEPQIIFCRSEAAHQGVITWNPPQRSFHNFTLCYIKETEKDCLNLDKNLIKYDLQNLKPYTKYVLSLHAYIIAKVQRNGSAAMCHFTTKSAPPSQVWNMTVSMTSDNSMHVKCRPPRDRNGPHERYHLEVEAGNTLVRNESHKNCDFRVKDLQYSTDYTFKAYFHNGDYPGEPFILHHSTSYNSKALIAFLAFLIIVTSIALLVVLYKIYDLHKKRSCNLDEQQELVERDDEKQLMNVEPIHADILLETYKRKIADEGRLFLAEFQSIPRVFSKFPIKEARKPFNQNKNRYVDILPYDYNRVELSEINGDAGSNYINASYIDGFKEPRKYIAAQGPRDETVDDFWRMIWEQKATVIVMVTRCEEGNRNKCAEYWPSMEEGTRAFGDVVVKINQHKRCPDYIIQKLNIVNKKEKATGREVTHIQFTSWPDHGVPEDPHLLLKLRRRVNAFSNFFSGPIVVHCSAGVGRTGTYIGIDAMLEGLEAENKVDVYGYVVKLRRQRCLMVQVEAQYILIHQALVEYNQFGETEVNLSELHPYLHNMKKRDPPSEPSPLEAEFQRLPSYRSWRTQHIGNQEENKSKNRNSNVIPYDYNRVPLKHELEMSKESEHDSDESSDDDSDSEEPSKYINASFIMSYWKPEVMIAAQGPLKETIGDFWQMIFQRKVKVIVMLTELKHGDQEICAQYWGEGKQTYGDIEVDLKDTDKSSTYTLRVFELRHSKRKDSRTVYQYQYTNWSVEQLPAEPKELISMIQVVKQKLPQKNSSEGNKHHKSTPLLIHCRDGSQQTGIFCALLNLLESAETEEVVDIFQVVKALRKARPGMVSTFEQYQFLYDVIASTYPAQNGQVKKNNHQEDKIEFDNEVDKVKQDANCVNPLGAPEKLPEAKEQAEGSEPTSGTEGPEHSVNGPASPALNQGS
Protocol: CD45-specific PTP activity was assayed as outlined in the BIOMOL Green™ CD45 Tyrosine Phosphatase Assay Kit. Briefly, 75 U of rhu-CD45 (Calbiochem) was incubated for 1H at 37° C. with the indicated inhibitors (1 μM CC5013 and thalidomide, 100 μM Na Orthovanadate, and 50 μM RWJ-60475 (CD45-specific PTP inhibitor) in 1× assay buffer. The substrate pp60c-Src was added at 200 μM and incubated for 1H at 37° C. Samples were read on a plate reader at 620 nm. Percent PTP activity was calculated according to the equation (OD of test sample/OD of control)×100.
This notion is in agreement with findings that lenalidomide suppressed cytosolic release of Csk that is dependent upon dephosphorylation of the Cbp/PAG Csk docking site (Tyr314) by CD45. To determine if lenalidomide inhibits CD45 phosphatase, recombinant CD45 PTP inhibition by lenalidomide and thalidomide was compared to the pan-PTP inhibitor sodium orthovanadate and the CD45-selective inhibitor, RWJ-60475 using the Biomol CD45 phosphatase assay. […] [FIG. 7].

U937 (non-del5q) cells = assay: Apoptosis by Annexin-V/PI flow cytometry in U937 cells; assay type: cell-based; conditions: 24 hours, all concentrations
Protocol: (§1) AML-EH5q (FIG. 8A) and U937 (FIG. 8B) cells were exposed to lenalidomide, thalidomide or vehicle at the concentrations indicated for 24 hours in IMDM and 20% FBS and apoptosis assessed by flow cytometry using Annexin-V/PI staining. Briefly, cells are incubated for 20 minutes at room temperature in 50 mM HEPES (pH 7.4) and 150 mM NaCl containing 2 mM calcium chloride with a mixture of 1 μg/mLAnnexin V-FITC (Boehringer Mannhein, Mannhein, Germany) and 2.5 μg/mL propidium iodide (PI; Sigma-Aldrich) before analysis.
(§2) The hematologic effects of lenalidomide could derive from dual effects that are karyotype-dependent, i.e., (1) the potentiation of erythropoiesis in non-del5q erythroid precursors, and (2) selective suppression of del5q clones. To confirm that lenalidomide is selectively cytotoxic to del-5q clones, an AML cell line transformed from an MDS patient with isolated 5q31 deletion was cultivated and the cell line successfully maintained in suspension culture with recombinant myeloid growth factor supplementation. This cell line [designated AML-EH5q] is an AML cell line that harbors the isolated 5q-deletion. […] To evaluate the selectivity of lenalidomide cytotoxic for del5q clones, apoptotic response to lenalidomide and thalidomide was compared in AML-EH5q and U937 (non-del5q) cells by flow cytometry. […] Viability was unaffected at all concentrations for both agents in U937 cells.

AML-EH5q cells = assay: Apoptosis by Annexin-V/PI flow cytometry in AML-EH5q cells; assay type: cell-based; conditions: AML-EH5q (5q-deleted) cells, 24 hours
Protocol: as §1, §2

| Structure (SMILES) | effect of kinase inhibitor on lenalidomide's potentiation of EPO-induced STAT5 phosphorylation [1] | effect of kinase inhibitor on lenalidomide-augmented EPO-induced Jak2-phosphorylation ([1]; inhibitor 30 minutes, CC5013 2 hours, EPO 1 U/ml 10 minutes) | inhibition of CD45 PTP activity (rhu-CD45) | viability / apoptosis (U937 (non-del5q) cells) | induction of programmed cell death (apoptosis) (AML-EH5q cells) |
| --- | --- | --- | --- | --- | --- |
| N#C/C(=C/c1ccc(O)c(O)c1)C(=O)NCc1ccccc1 [AG490] | suppress | abrogated | – | – | – |
| COc1cc(Nc2c(C#N)cnc3cc(OCCCN4CCN(C)CC4)c(OC)cc23)c(Cl)cc1Cl [SKI-606] | suppress | – | – | – | – |
| O=C1CCC(N2C(=O)c3ccccc3C2=O)C(=O)N1 (stereo not drawn) [thalidomide] | – | – | minimal inhibition | comparatively inactive; also recorded: unaffected | comparatively inactive |
